The structures appear in SMILES notation. ≈ marks a conversion by molar mass, not a printed value. Where two headings read alike, the source gives them in different places.

Experiment [1] has as its system colon 38 cells. Briefly: In vitro antitumor test against colon 38 cells (MTT). It counts as cell-based. As to conditions: 72 h, concentration at which 50% of mouse colon 38 cells are inhibited, 3 days. How it is done: In vitro Antitumor Test Against Colon 38 Cells (Mouse Colon Cancer Cells)
2.5×10^3 (0.1 ml) of colon 38 cells suspended in RPMI1640 medium (a product of Sanko Junyaku) containing 10% of fetal bovine serum, penicillin (100 units/ml), streptomycin (100 μg/ml), mercaptoethanol (5×10^-5 M) and sodium pyruvate (1 mM) were inoculated in each well of a 96-well flat-bottomed microplate, and cultured in an incubator containing 5% of carbon dioxide at 37° C. for one day.
A test compound according to the present invention was dissolved in dimethyl sulfoxide in a concentration of 20 mg/ml and the resulting solution was diluted with 10% fetal bovine serum/RPMI1640 medium to a concentration of 200 μg/ml. The resulting solution was diluted with 10% fetal bovine serum/RPMI1640 medium to prepare 3-fold serial dilutions with the maximum concentration being 200 μg/ml. The obtained dilutions were each poured into the well of the above-described culture plate in an amount of 0.1 ml. The resulting plate was cultured at 37° C. in an incubator containing 5% of carbon dioxide for 3 days.
Thereafter, a solution of MTT[3-(4,5-dimethylthiazol-2-yl)-2,5-diphenyltetrazolium bromide] (having a concentration of 3.3 mg/ml) was added to each well in an amount of 0.05 ml. The resulting mixtures were further incubated for 2 hours. The supernatant was removed from each well by suction. Formed formazan was dissolved in 0.1 ml of dimethyl sulfoxide. The absorbance at 540 nm was determined with a microplate reader and the absorbance was taken as an index of the number of viable cells. The inhibitory ratio of the test compound was calculated according to the following formula to determine the IC50 of the test compound, with the IC50 referring to the concentration at which 50% of mouse colon 38 cells are inhibited: [formula] T: absorbance of well containing a test compound C: absorbance of well containing no test compound

In experiment [2] the test system is colon 38. It counts as in vivo, mouse. As to conditions: once a day for 8 days, BDF1 mice, tumor weight on 21st day. How it is done: In vivo Antitumor Test Against Colon 38 (Mouse Colon Cancer)
About 75 mg of colon 38 was subcutaneously transplanted to the flank of each BDF1 mouse (aged 7 weeks, female). A test compound according to the present invention was suspended in a physiological saline containing 3.5% of dimethyl sulfoxide and 6.5% of Tween 80 and the obtained suspension was intraperitoneally administered to the mice in a predetermined dose once a day for 8 days from the next day of transplantation. On the other hand, only a physiological saline containing 3.5% of dimethyl sulfoxide and 6.5% of Tween 80 was intraperitoneally administered to the mice of the control group. The control group was composed of ten mice, while each treated group was composed of six mice.
On the 21st day after the transplantation, the tumor was extirpated from each mouse to determine its weight. The tumor growth inhibition ratio was determined by the following formula: [formula] T: average weight of tumor of the treated group C: average weight of tumor of the control group

The subject of experiment [3] is HCT116. The experiment is described as follows: animal or person. As to conditions: Mus musculus, HCT-116, ip, 504 h, once a day for 4 days, nude mice, tumor weight on 21st day, read-out: Growth inhibition ratio; for inhibition in vivo at 100 mg/kg: 100 mg/kg/day i.p. An excerpt: In vivo Antitumor Test Against HCT116 (Human Colon Cancer)
HCT116 (5 to 8×10^6) was subcutaneously transplanted to the flank of each nude mouse (BALB/c·nu/nu, aged 7 to 8 weeks, female). A test compound according to the present invention was suspended in a physiological saline containing 3.5% of dimethyl sulfoxide and 6.5% of Tween 80 and the obtained suspension was intraperitoneally administered to the mice treated above once a day in a predetermined dose for 4 days after the time at which the tumor volume had increased to about 100 mm^3, which was about 7 days after the transplantation. On the other hand, only a physiological saline containing 3.5% of dimethyl sulfoxide and 6.5% of Tween 80 was intraperitoneally administered to the mice of the control group. The control group was composed of ten mice, while each treated group was composed of five mice. On the 21st day after the initiation of administration, the tumor was extirpated from each mouse to determine its weight. The tumor growth inhibition ratio was determined by the following formula: [formula] T: average weight of tumor of the treated group C: average weight of tumor of the control group

The IC50 is the concentration at which inhibition is half-maximal. Higher therefore signals weaker potency in that assay. `N#Cc1c[nH]c2c(NS(=O)(=O)c3cccc(Cl)c3)cccc12` [Example 17] registered an IC50 in experiment [1] of 0.13 µg/mL (≈ 0.392 µM). Also, the Growth inhibition ratio in experiment [2] (50 mg/kg/day i.p.) worked out at 94%.

Take `N#Cc1ccc(S(=O)(=O)Nc2cccc3c(Cl)c[nH]c23)cc1` [Example 10]: the IC50 in experiment [1] was 0.13 µg/mL (≈ 0.392 µM). In addition, in experiment [2] (50 mg/kg/day i.p.), the Growth inhibition ratio was determined as 94%.

For `Nc1ccc(S(=O)(=O)Nc2cnc3c(Cl)cccc3n2)cc1` [CQS, 2-sulfanylamido-5-chloroquinoxaline, reference compound], in experiment [1], the half-inhibitory concentration (IC50) is 2 µg/mL (≈ 5.97 µM). The Growth inhibition ratio in experiment [2] (200 mg/kg/day i.p.) is recorded as 53%. Further, in experiment [3] (200 mg/kg/day i.p.), the inhibition in vivo at 200 mg/kg came to 33%.

With `Nc1ccc(S(=O)(=O)Nc2cccc3c(Cl)c[nH]c23)cc1` [Example 3], in experiment [1], the IC50 was 0.23 µg/mL (≈ 0.715 µM). Besides, the Growth inhibition ratio in experiment [2] (50 mg/kg/day i.p.) is reported as 94%.

In experiment [1], `CC(=O)c1ccc(S(=O)(=O)Nc2cccc3c(C#N)c[nH]c23)cc1` [Example 42] came in with a 50% inhibitory concentration (IC50) of 0.25 µg/mL (≈ 0.737 µM). Moreover, the Growth inhibition ratio in experiment [2] (50 mg/kg/day i.p.) came out at 98%.

As to `NS(=O)(=O)c1ccc(S(=O)(=O)Nc2ccc(Cl)c3c(Cl)c[nH]c23)cc1` [Example 21], the 50% inhibitory concentration (IC50) in experiment [1] stood at 0.12 µg/mL (≈ 0.286 µM). Also, in experiment [3], the inhibition in vivo at 100 mg/kg was 95%.

For the compound `N#Cc1ccc(S(=O)(=O)Nc2cccc3c(C#N)c[nH]c23)cc1` [Example 28], inhibition in experiment [1] was half-maximal at 0.12 µg/mL (≈ 0.372 µM) (IC50). Further, the inhibition in vivo at 100 mg/kg in experiment [3] is 77%.

With `CS(=O)(=O)Cc1ccc(S(=O)(=O)Nc2cccc3c(Cl)c[nH]c23)cc1` [Example 73], in experiment [1], the half-inhibitory concentration (IC50) was determined as 0.11 µg/mL (≈ 0.276 µM). In experiment [3] (50 mg/kg/day i.p.), the inhibition in vivo at 50 mg/kg turned out to be 78%.

`NC(=O)c1ccc(S(=O)(=O)Nc2cccc3c(Cl)c[nH]c23)cc1` [Example 29]: half-maximal inhibition in experiment [1] (IC50) required 0.19 µg/mL (≈ 0.543 µM). Moreover, the Growth inhibition ratio in experiment [2] (50 mg/kg/day i.p.) was 97%. Also, in experiment [3], the inhibition in vivo at 100 mg/kg was found to be 80%.
